Counter-ions that a name gives are not always drawn. Like-named read-outs stand apart in the source and are kept apart here.
Columns and labels:
[1] = tested on: hiPSC-derived 3D neurospheres; experiment: cells; type: cell-based, human; conditions: for EC10 / EC25 / EC50: Homo sapiens, 72 h; for Effect on cell viability (in words): D21, D28, D42 neurospheres
Description: After thawing, NSCs (generated as detailed above) were cultured on POL/L (0.002%/1 µg/cm^2) coated plates (50,000 cells/cm^2). When reached 100% confluence NSCs were propagated with Accutase treatment and single-cell suspension was plated onto a low-adherent 96-well plate with 10,000 cells/well in NMM medium. […] Samples were collected at Day 0 (D0), Day 2 (D2), and weekly intervals from the end of the 1st week (D7) until the end of the 6th week (D14, D21, D28, D35, and D42).
Eleven well-known compounds were tested in 7 different concentrations to generate concentration-response curves. The tested compounds with the used concentrations are detailed in Table S3. […] In each assay plate, 4 technical replicates were applied from each sample and 3 biological replicate assays were run (n = 3). The 3D cell cultures were exposed to the toxicants for 72 h (exposure schemes are detailed in Figure 5A or Figure 6A or Figure 7A). Vehicle control was used as a regular medium supplemented with 0.1% DMSO.
ATP viability assay was performed with CellTiter-Glo® 3D Cell Viability Assay, according to the manufacturer’s protocol (Promega). Neurospheres were lysed with 100 μL CellTiter-Glo® 3D Reagent for 60 min at RT. Luminescence signal was recorded with a Thermo VarioScan Flash (Thermo Fisher Scientific) plate reader.
All results were analyzed using Prism 5 (GraphPad Software, La Jolla, CA, USA) and handled in Microsoft Office 2010 (Microsoft, Redmond, WA, USA) software. For normalization of the concentration response, the average values of positive control were used as 0% and the average of vehicle control served as 100%. Four parameter curve fitting methods were used to determine EC10 and EC50 values, where the data on the graphs represent the average of three biological replicates. The “n” value corresponds to the number of biological replicates for each tested concentration. Analysis of data is presented as the mean ± SEM. Significance of data was determined with paired T test for RT-qPCR (* p < 0.01) and with One-way ANOVA for concentration response (* p < 0.05; ** p < 0.01).

humans = conditions: ref PubChem database (https://pubchem.ncbi.nlm.nih.gov/), cited from earlier work
[2] = tested on: in vitro multicellular cytotoxicity; conditions: multicellular cytotoxicity "comptox" data; ref EPA's Chemical dashboard (https://comptox.epa.gov/dashboard); cited from earlier work
rat = tested on: rat; parameters: method as in PubChem database (https://pubchem.ncbi.nlm.nih.gov/); conditions: ref PubChem database (https://pubchem.ncbi.nlm.nih.gov/), cited from earlier work
XBP1(S) = experiment: XBP1 assay of endoplasmic reticulum stress; type: cell-based, human; conditions: listed as ROT
Description: Upon accumulation of unfolded proteins in the endoplasmic reticulum (ER), a 26-nucleotide fragment from the X-box binding protein 1 mRNA (XBP1(U)) is removed with a special splicing mechanism. This shorter mRNA (XBP1(S)) is a frequently used marker of ER-stress. To study the expression of XBP1(S), previously described primers and our own primers were used (Table S2). As a positive control, cells were treated with 5 µM and 10 µM Tunicamycin to induce ER-stress. RT-PCR reactions were performed and analyzed as above, using Phusion Hot Start II High-Fidelity DNA Polymerase and 20 ng of the cDNA samples.

[3] = tested on: hiPSC-derived 3D neurospheres; experiment: TUNEL apoptosis assay on cryosectioned 3D neurospheres; type: cell-based, human; conditions: 0.5 µM for 72 h; average, in each stage (D21, D28, D42)
Description: Embedding and cryosectioning of 3D samples were performed as above. To detect apoptotic activity, the DeadEnd™ Colorimetric TUNEL System (Promega) was used on the middle cryosections (highest diameter) of the spheroids, following the instructions of the manufacturer. In brief, apoptosis was detected by immersing the slides in PBS for 5 min (at RT), adding 20 μg/mL Proteinase K solution and incubating for 10–30 min (at RT). After 5–10 min treatment in Equilibration buffer, recombinant terminal deoxynucleotidyl transferase (rTdT) was added to the reaction mixture. Next, the sections were incubated for 60 min at 37 °C inside of a humidified chamber to allow the end-labelling reaction to occur. The reaction was terminated by immersing the slides in saline-sodium citrate for 15 min (RT). Endogenous peroxidases were blocked by immersing the slides in 0.3% hydrogen peroxide in PBS for 3–5 min (RT). Streptavidin-HRP was added to slides, incubated for 30 min (RT), stained with diaminobenzidine (DAB) solution for 5 min until a light brown background appeared. For hematoxylin–eosin (HE) staining Mayer’s Hematoxylin solution was used for 3 min. […] Five Ctrl and five ROT-treated spheroids were randomly selected, and middle sections were analyzed from each differentiation stage (D21, D28, and D42) samples in three experiments (n = 3).

LUHMES cells [4] = conditions: cited from earlier work
LUHMES cells [5] = conditions: LUHMES cells exposed; literature value, reference not given; cited from earlier work
[6] = D21 stage, 72 h exposure, investigated concentration range
[7] = read-out: EC10 (cell viability), D21 3D neurospheres, 72 h exposure
[8] = read-out: EC10 (cell viability), D42 3D neurospheres, 72 h exposure
[9] = read-out: EC25 (cell viability), D21 3D neurospheres, 72 h exposure
[10] = read-out: EC25 (cell viability), D28 3D neurospheres, 72 h exposure
[11] = read-out: EC25 (cell viability), D42 3D neurospheres, 72 h exposure
[12] = D21 3D neurospheres, 72 h exposure, read-out: EC10 (cell viability) (converted)
[13] = D21 3D neurospheres, 72 h exposure, read-out: EC25 (cell viability) (converted)
[14] = D21 3D neurospheres, 72 h exposure, read-out: EC50 (cell viability) (converted)
[15] = D28 3D neurospheres, 72 h exposure, read-out: EC10 (cell viability) (converted)
[16] = D28 3D neurospheres, 72 h exposure, read-out: EC25 (cell viability) (converted)
[17] = D28 3D neurospheres, 72 h exposure, read-out: EC50 (cell viability) (converted)
[18] = D42 3D neurospheres, 72 h exposure, read-out: EC10 (cell viability) (converted)
[19] = D42 3D neurospheres, 72 h exposure, read-out: EC25 (cell viability) (converted)
[20] = D42 3D neurospheres, 72 h exposure, read-out: EC50 (cell viability) (converted)
[21] = D21 3D neurospheres, 72 h exposure
[22] = investigated concentration range
[23] = D28 3D neurospheres, 72 h exposure
[24] = D42 3D neurospheres, 72 h exposure
[25] = read-out: EC10 (cell viability)
[26] = read-out: EC25 (cell viability)
[27] = read-out: EC50 (cell viability)

Compound	In vitro cytotoxicity limit [2] [µM]	Effect on viability of 3D neurospheres (in words) [1, 6]	EC10 [1, 12] [µM]	EC25 [1, 13] [µM]	EC50 [1, 14] [µM]	EC10 [1, 15] [µM]	EC25 [1, 16] [µM]	EC50 [1, 17] [µM]	EC10 [1, 18] [µM]	EC25 [1, 19] [µM]	EC50 [1, 20] [µM]	also measured
C=CC(N)=O [Acrylamide, 2-Propenamide]												EC10 (cell viability) [1]: > 3.5 log µM; EC25 (cell viability) [1]: > 3.5 log µM
COc1cc2c(c(OC)c1OC)-c1ccc(OC)c(=O)cc1[C@@H](NC(C)=O)CC2 [Colchicine, (S)-N-(5,6,7,9-Tetrahydro-1,2,3,10-tetramethoxy-9-oxobenzo[a]heptalen-7-yl)acetamide]	0.02	had a strong effect on the viability, but did not kill all the cells										Probable oral lethal dose in humans (humans; oral): < 5 mg/kg; EC10 [1, 7]: 0.000257 µM; EC10 [1, 8]: 0.000282 µM; EC25 [1, 9]: 0.00912 µM; EC25 [1, 10]: 0.0129 µM; EC25 [1, 11]: 0.00575 µM
COc1cccc2c1C(=O)c1c(O)c3c(c(O)c1C2=O)C[C@@](O)(C(=O)CO)C[C@@H]3O[C@H]1C[C@H](N)[C@H](O)[C@H](C)O1 [Doxorubicin, Doxorubicin hydrochloride]		caused maximum cell death	0.263	1.1	4.68	2.14	5.25	12.9	3.09	7.94	20.9	LD50 (rat; subcutaneous): • - Intercalating chemotherapy drug; • - inhibiting the movement of topoisomerase II, which leads to the blocking of both replication and transcription; and • - LD50: 21.8 mg/kg (rat, subcutaneous).
Oc1c(Cl)cc(Cl)c(Cl)c1Cc1c(O)c(Cl)cc(Cl)c1Cl [Hexachlorophene, 2,2′-Methylenebis(3,4,6-trichlorophenol)]	1.86	had a strong effect on the viability, but did not kill all the cells	0.631	3.39	18.2	0.257	1.62	10.2	0.0661	0.457	3.16	LD50 (rat; oral): 66 mg/kg
CC(C)Cc1ccc(C(C)C(=O)O)cc1 (stereo not drawn) [Ibuprofen, α-Methyl-4-(isobutyl)phenylacetic acid]		did not decrease the viability	> 100	> 100	> 100	> 100	> 100	> 100	> 100	> 100	> 100	Consumed dose at which overdose symptoms appear (humans; individuals): > 99 mg/kg; EC50 (cell viability) [1, 21]: > 2 log µM; Effect on cell viability (in words) [1, 22]: no effect on neuronal cell viability
[Cl][Hg][Cl] [Mercury(II) chloride]	1.37	caused maximum cell death										Probable oral lethal dose in humans (humans; oral): 5 to 50 mg/kg; EC10 (cell viability) [1, 21]: 1.1 log µM; EC25 (cell viability) [1, 21]: 1.5 log µM; EC50 (cell viability) [1, 21]: 1.87 log µM; EC10 (cell viability) [1, 23]: 1.4 log µM; EC25 (cell viability) [1, 23]: 1.60 log µM; EC50 (cell viability) [1, 23]: 1.83 log µM; EC10 (cell viability) [1, 24]: 1.34 log µM; EC25 (cell viability) [1, 24]: 1.54 log µM; EC50 (cell viability) [1, 24]: 1.74 log µM
CC(=O)Nc1ccc(O)cc1 [Paracetamol, 4′-Hydroxyacetanilide]												Acute overdose at which hepatic toxicity occurred in humans (humans): > 10 g; EC50 (cell viability) [1]: > 2 log µM; Effect on viability of 3D neurospheres (in words) [1]: minimal effect on the viability; EC10 [1, 25]: > 100 µM; EC25 [1, 26]: > 100 µM; EC50 [1, 27]: > 100 µM; LD50 (rat; oral): 2400 mg/kg
C[n+]1ccc(-c2cc[n+](C)cc2)cc1 [Paraquat, 1,1′-Dimethyl-4,4′-bipyridinium dichloride hydrate]		caused maximum cell death	14.1	33.1	77.6	22.4	46.8	95.5	12.3	27.5	61.7	Probable oral lethal dose in humans (humans; oral): • - Herbicide; • - neurotoxic: occupational exposures leading to Parkinson’s disease [74]; • - widely investigated neurotoxic mechanism [75, 76]; and • - probable oral lethal dose in humans is 35 mg/kg.
CO[C@H]1/C=C/O[C@@]2(C)Oc3c(C)c(O)c4c(O)c(c(/C=N/N5CCN(C)CC5)c(O)c4c3C2=O)NC(=O)/C(C)=C\C=C\[C@H](C)[C@H](O)[C@@H](C)[C@@H](O)[C@@H](C)[C@H](OC(C)=O)[C@@H]1C [Rifampicin, 3-(4-Methylpiperazinyliminomethyl)rifamycin]												Probable lethal oral dose in humans (humans; oral): 14 to 60 g; EC50 (cell viability) [1]: > 2 log µM; Effect on viability of 3D neurospheres (in words) [1]: reduced the viability; EC10 [1, 25]: > 100 µM; EC25 [1, 26]: > 100 µM; EC50 [1, 27]: > 100 µM; LD50 (rat; route not given): 1570 mg/kg
C=C(C)[C@H]1Cc2c(ccc3c2O[C@@H]2COc4cc(OC)c(OC)cc4[C@@H]2C3=O)O1 [Rotenone]	0.22											ER-stress inducing effect (XBP1 assay) (XBP1(S)): no ER-stress inducing effect; Probable lethal dose in human (humans): 300 to 500 mg/kg; EC10 [1, 7]: 0.0129 µM; EC10 ([1]; read-out: EC10 (cell viability), D28 3D neurospheres, 72 h exposure): 0.00646 µM; EC10 [1, 8]: 0.00447 µM; EC25 [1, 9]: 0.0562 µM; EC25 [1, 10]: 0.0347 µM; EC25 [1, 11]: 0.0331 µM; EC50 ([1]; read-out: EC50 (cell viability), D21 3D neurospheres, 72 h exposure): 0.245 µM; EC50 ([1]; read-out: EC50 (cell viability), D28 3D neurospheres, 72 h exposure): 0.182 µM; EC50 ([1]; read-out: EC50 (cell viability), D42 3D neurospheres, 72 h exposure): 0.24 µM; Increase in the apoptotic cell number compared to the control [3]: 15%; Neurite outgrowth of LUHMES cells (in words) (LUHMES cells [4]): prominent neurite growth inhibition
CCCC(CCC)C(=O)O [Valproic acid, 2-Propylpentanoic acid]		minimal effect on the viability	> 398	> 398	> 398	> 398	> 398	> 398	> 398	> 398	> 398	EC50 (LUHMES cells [5]): > 100 µM; EC50 (cell viability) [1, 21]: > 2.6 log µM; Effect on cell viability (in words) [1, 22]: no detectable impact; Neurite outgrowth of LUHMES cells (in words) (LUHMES cells [4]): significant inhibition of neurite outgrowth
